# Data: patent US11795510B2, “Identification of epigenomic reprogramming in cancer and uses thereof” (The Johns Hopkins University, priority 2016, dated 2023)
# “Also recorded” adds a separate entry of the source.
# Columns and labels:
# Format in all cases: cell-based, human
# [1] = test system: global chromatin modifications in peritoneal subclone (A38Per), normal cells (HPDE, fibroblast) and local-regional PDACs; assay: Western blots of histone modifications, peritoneal subclone, normal cells and local-regional PDACs
# Procedure: (§1) Histones were acid extracted as described and western blots performed on 3.5 ug histones, which were checked by Ponceau stains prior to western blot to ensure equal loading. Densitometry was performed with ImageJ software. RNA was extracted with Trizol reagent (Life Technologies) and isopropanol precipitated. Genomic DNA was purified with MasterPure DNA extraction reagents (Epicenter). Immunohistochemistry, H&E staining, and immunofluorescence on formalin-fixed, paraffin-embedded (FFPE) tissue microarray sections (TMAs) were performed according to standard procedures.
# (§2) RNAi experiments were performed with siRNA transfections (Oligofectamine, Life Technologies) using negative control siRNA (Sigma, SIC001) and pre-designed siRNA oligonucleotides against indicated genes in parallel (Sigma, PGD: SASI_Hs02 00334150, CDH2: SASI_Hs01_00153995, TOP2B: SASI_Hs02_00311874). siRNAs against mutant KRAS^G12V (CUACGCCAACAGCUCCAAC) (SEQ ID NO:1) were custom designed. Cells were incubated with siRNAs for 4 days after transfection and harvested. For drug treatments in 2-D, cells were grown to 70-80% confluency and treated for 3 days with 250 uM 6AN or DMSO negative control.
# [2] = test system: H3K9Me2, H3K27Ac, H3K27Me3 in LOCK regions of A38Lg; assay: ChIP-seq on control (DMSO) and 6AN-treated A38Lg cells; conditions: DMSO vs. 6AN
# Procedure: as §2
# Tests for statistical significance (two-tailed students t-test) were performed on data collected from technical replicate (performed in parallel at the same time) or biological replicate (performed at different times) experiments as indicated in the figure legends using excel software for western blot densitometry, MTT assays, and tumor measurements. Whole genome bisulfite sequencing and RNA-seq were performed with HiSeq instruments (Illumina) as described in Hansen et al. (Increased methylation variation in epigenetic domains across cancer types. Nat Genet 43, 768-75 (2011)). ChIP assays were performed as previously described for fixed cells with sonication. For ChIP-qPCR, equal amounts of paired input/IP DNA were amplified by real-time PCR (Roche LightCycler96) and fold enrichments calculated. Primer sequences are listed in Supplementary Table 11. […] IP sequencing reads were normalized to their corresponding inputs. […]
# Chip-seq data processing. For 46 bp paired-end Illumina HiSeq2000 sequencing data, reads were aligned against human genome (hg19) using BWA with default parameters as described in Li et al. (Fast and accurate short read alignment with Burrows-Wheeler transform. Bioinformatics 25, 1754-60 (2009)). After alignment, duplicate reads were removed and only uniquely aligned reads were kept for further analysis. For 48 bp single-end Solid sequencing data, reads were aligned using Bowtie^7 with default parameters and only uniquely aligned reads were kept for further analysis. […]
# [3] = test system: CDH2 and TOP2B expression; assay: Real-time RT-PCR of CDH2 and TOP2B
# Procedure: as §1
# [4] = test system: distant metastatic subclones; assay: 3-D suspension tumorsphere assay, distant metastatic subclones
# Procedure: 3-D matrigel assays were adapted from Cheung et al. (Control of alveolar differentiation by the lineage transcription factors GATA6 and HOPX inhibits lung adenocarcinoma metastasis. Cancer Cell 23, 725-38 (2013)). Briefly, 2-D cultures were trypsinized into single cells, 4,000cells/mL were suspended and thoroughly mixed in ice-cold DMEM containing 5% matrigel (BD systems) and 2% FBS (+/−DMSO/6AN as needed), 500 ul plated in quadruplicate into 24 well ultra-low attachment plates, and incubated for at least 7 days to allow tumor growth. Well-formed tumors were then counted and representative photographs taken with an EVOS instrument. 3-D suspension tumorsphere assays were performed with 20,000 starting cells/well in ultra-low attachment 6 well plates as described, and tumors counted/photographed after at least 7 days of tumor growth.
smiles,measurement,setting,value
"NC(=O)c1ccc(N)nc1 [6AN, 6-aminonicotinamide]","histone modifications, western blot densitometry","[1]; normal (HPDE, fibroblast) or local-regional PDAC samples",minimal effects; also recorded: did not show such changes
same,effect on global chromatin modifications (western blots),[1]; peritoneal subclone A38Per,no effect
same,H3K27Ac at genes repressed from LOCKs (ChIP-seq),[2],reduced
same,LOCK-wide H3K9Me2 from reprogrammed regions (ChIP-seq),[2],quantitative increase
same,levels of H3K27Me3 (ChIP-seq),[2],remained stable; also recorded: unchanged
same,CDH2 expression (RT-PCR),[3]; distant metastatic subclone A38Lg,selectively repressed
same,TOP2B expression (RT-PCR),[3]; lung metastatic subclone,selectively repressed
same,tumor formation in 3-D suspension tumorsphere assays,[4],selectively and strongly blocked tumor formation; also recorded: ablated tumor formation
